Reference: the NIST ThermoML archive (doi:10.1021/je0302248)
Numbers after ± are expanded uncertainties.

Conditions: Liquid

| vapor or sublimation pressure (319.5 K) [kPa] | vapor or sublimation pressure (336.5 K) [kPa] | vapor or sublimation pressure (393.4 K) [kPa] | vapor or sublimation pressure (419.2 K) [kPa] | Structure (SMILES) |
| --- | --- | --- | --- | --- |
| 24 ± 7.2 | 53.32 ± 16 |  |  | CCO [ethanol] |
|  |  | 24 ± 7.2 | 53.32 ± 16 | CCO[Si](OCC)(OCC)OCC [tetraethoxysilane] |
